Patent US20250082674A1, “METHODS OF TREATING COPPER METABOLISM-ASSOCIATED DISEASES OR DISORDERS” (priority 2021, published 2025)

System: ^64CuCl2 (^64Cu) intestinal absorption and hepatic copper uptake
Test: Example 2: Copper Absorption study, oral 64Cu PET-CT in healthy subjects
Format: in vivo, human
Details: healthy subjects; for mean SUV liver / hepatic uptake of labeled copper, comparison between treatments: 1 hour and 15 hours after oral 64Cu; for reduction of mean hepatic copper uptake: 1 hr scan post treatment, oral 64Cu, 7 days treatment
Protocol: Blood was collected at several time points to assess plasma copper kinetics. The study was carried out as a randomized, placebo-controlled intervention study. […] The study assessed the previously listed organs and the effect of anti-copper treatment by comparing the mean standard uptake value (SUV) in the organs of interest. […] The dynamic baseline scans and the subsequent static scans were compared across all treatments.

| Compound | mean SUV liver / hepatic uptake of labeled copper, comparison between treatments | reduction of mean hepatic copper uptake |
| --- | --- | --- |
| CC(C)(S)[C@@H](N)C(=O)O [penicillamine, (2S)-2-amino-3-methyl-3-sulfanylbutanoic acid, reference compound] | not different from placebo | approximately 25% |
| NCCNCCNCCN [trientine, N′-[2-(2-aminoethylamino)ethyl]ethane-1,2-diamine, reference compound] | significantly lower than with penicillamine | ~50% |
